Reference: patent US11786507B2, “Methods of treating HIV-associated neurological disorders (HAND)” (priority 2020, dated 2023)

What was measured:
iTat mice = assay: Open Field Test (OPT), locomotor activity; type: in vivo, mouse; details: PAM 15 mg/kg/day s.c. vs DMSO
Description: Doxycycline (Dox)-inducible and astrocyte-specific HIV-1 Tat-transgenic mice (iTat) were generated as previously described.^38 Wild-type (Wt, C57BL/6) and α7 nAChR knockout mice (α7^−/−, B6.129S7-Chrna^7tm1Ba/J) were purchased from the Jackson Laboratory (Bar Harbor, ME). All the animal procedures were approved by the Institutional Animal Care and Use Committee. Mice were housed with a 12-hour light and 12-hour dark photoperiod and provided water and food ad libitum. α7^−/− iTat mice were generated by cross breeding iTat mice with α7^−/− mice. α7^−/− genotyping was slightly modified with the JumpStart™ Taq DNA Polymerase-based PCR (JumpStart™ Taq DNA Polymerase, Sigma, catalog #D9307). […] Mice of 10-14 weeks old with body weights of 20-35 grams were fed with Dox-containing diet (0.625 g/kg, Envigo, catalog #TD.01306) as stated.
Open Field Test (OPT) and Morris Water Maze (MWZ) were performed sequentially using a computerized video tracking system (Anymaze, Stoelting) to determine the spontaneous locomotor activity and spatial learning and memory, respectively. For OPT, each mouse was allowed to move freely around a clear acrylic chamber (40.5×40.5×30.5 cm) for 10 minutes. Travel distance and maximum speed was determined by the AnyMaze software. For MWZ, a circle pool (1.2 m diameter) surrounded with a curtain was divided into four equal quadrants, and four signs with different shape were fixed onto the middle of each quadrant wall above the opaque water (24±1° C.). A hidden platform (1.5 cm below water surface) was put into a certain quadrant. Two stages consisting of 5-day training and probe test were carried out. In the training stage, four trials with a 15-20 minute interval were conducted in the every-day training, and for each trial mice were allowed to freely seek the platform within 90 seconds right after they were randomly put into one quadrant facing to the pool wall. If the mice found the platform within 90 seconds, 10 seconds would be added to allow them staying on the platform for memorizing, however, if failed, they would be directed toward the platform and allowed to stay on it for 15 seconds. Mice that were immobile or floating and unable to find the platform during the training stages were excluded from the experiments. Probe test was carried out on the next day following the 5-day training stage with a 60 seconds trial, and the platform was removed to prevent the mice from climbing onto it during the testing. One day after the behavioral tests, mice were euthanized and the brains were harvested.
To determine if α7 nAChR is involved in HAND, iTat mice were fed with Dox-containing food pellets for 7 days, injected s.c. with a well-studied and highly specific positive allosteric modulator (PAM) PNU-120596 of α7 nAChR^73,74 […], and then subjected to open field test (OPT) for locomotor activity on day 14, and Morris Water Maze test (MWZ) for learning and spatial memory on day 15-20, and euthanized to harvest tissues on day 21 (FIG. 1A). Dox-containing food pellet feeding and PAM injection continued during the next 7 days of behavioral tests. To minimize the effects of injection on behavioral tests, PAM was injected 5 hours after each behavioral test.

α7 nAChR = α7 nAChR expression in brain tissue (Western blotting, immunofluorescence); type: in vivo, mouse
Procedure: FIG. 11A-FIG. 11E show the α7 nAChR expression in the brain, cortical neurons, microglia, and astrocytes in response to Tat and PAM. Western blotting was performed in the same samples of FIG. 1D (FIG. 11A & FIG. 11B, mouse brain tissue, n=6/group, three males, and three females) and FIG. 4A (FIG. 11D & FIG. 11E, primary cells, and n=3/group) using an anti-α7 nAChR antibody. Immunofluorescent staining (FIG. 11C, scale bars 20 μm) of the brain tissues was also performed using an anti-α7 nAChR antibody. p<0.05 was considered significant and marked as *; p<0.01 and p<0.001 were both considered highly significant and marked as ** and ***, respectively.
A RIPA buffer (50 mM Tris.HCl, pH 8.0, 280 mM NaCl, 0.5% NP-40, 1% C24H39NaO4, 0.2 mM EDTA, 2 mM EGTA and 10% glycerol) supplemented with protease inhibitors (Millipore-Sigma, catalog #S8830) and phosphatase inhibitors (Millipore-Sigma, catalog #4906845001) was used to lyse the brain tissues and cultured cells with brief sonication on ice. Protein concentrations of the lysates were determined using a Bio-Rad DC protein assay kit (Bio-Rad, catalog #5000111). […]

COc1cc(OC)c(NC(=O)Nc2cc(C)on2)cc1Cl [PAM, 1-(5-chloro-2,4-dimethoxy-phenyl)-3-(5-methyl-isoxazol-3-yl)-urea]
OPT maximum speed (iTat mice; Wt and iTat mice): increases of the maximum speed of male Wt mice but not other mice
OPT total travel distance (iTat mice; Wt mice): some improvement of the travel distance of Wt mice
OPT total travel distance (iTat mice; iTat mice): improvement of the travel distance of iTat mice
α7 nAChR expression (α7 nAChR; cortex of iTat mice): increased in cortex
α7 nAChR expression (α7 nAChR; hippocampus of iTat mice): only decreased in hippocampus by both Tat expression and PAM treatment
